The structures appear in SMILES notation. Read-outs that look alike come from different tables or passages of the source.

The source of these data is paper PMC3234597, “Two Panels of Steroid Receptor Luciferase Reporter Cell Lines for Compound Profiling” (Combinatorial Chemistry & High Throughput Screening, 2011).

Holding throughout (type): cell-based
Experiment [1] addresses T1, GR-LBD fused to Gal4-DBD (Homo sapiens, UniProt P04150).
T1 construct: expressed in transfected cells; host or cells: U2OS
T1 sequence (P04150 524-758 limits assumed): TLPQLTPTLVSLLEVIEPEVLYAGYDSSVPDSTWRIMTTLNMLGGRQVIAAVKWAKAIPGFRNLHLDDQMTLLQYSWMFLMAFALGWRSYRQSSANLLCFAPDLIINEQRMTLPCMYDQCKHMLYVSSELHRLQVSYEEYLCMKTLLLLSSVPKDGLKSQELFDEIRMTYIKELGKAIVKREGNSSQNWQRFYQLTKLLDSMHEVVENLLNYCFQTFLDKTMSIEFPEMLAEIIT
Briefly: U2OS-GR-LBD/9xGal4UAS luciferase reporter cell line. The conditions noted are these: for Log EC50: agonist mode, 20 h, log10 of molar EC50, mean ± SEM; for Log EC50 / Log IC50: GR-LBD/9xGal4UAS; for Log IC50: antagonist mode, in the presence of 5 nM dexamethasone, log10 of molar IC50, mean ± SEM.

The target in experiment [2] is T2, human GR (full-length) (Homo sapiens, UniProt P04150).
T2 construct: expression vectors encoding full-length steroid receptors: pcDNA3-hAR and pcDNA3-hGR; host or cells: U2OS
T2 sequence (P04150 1-777): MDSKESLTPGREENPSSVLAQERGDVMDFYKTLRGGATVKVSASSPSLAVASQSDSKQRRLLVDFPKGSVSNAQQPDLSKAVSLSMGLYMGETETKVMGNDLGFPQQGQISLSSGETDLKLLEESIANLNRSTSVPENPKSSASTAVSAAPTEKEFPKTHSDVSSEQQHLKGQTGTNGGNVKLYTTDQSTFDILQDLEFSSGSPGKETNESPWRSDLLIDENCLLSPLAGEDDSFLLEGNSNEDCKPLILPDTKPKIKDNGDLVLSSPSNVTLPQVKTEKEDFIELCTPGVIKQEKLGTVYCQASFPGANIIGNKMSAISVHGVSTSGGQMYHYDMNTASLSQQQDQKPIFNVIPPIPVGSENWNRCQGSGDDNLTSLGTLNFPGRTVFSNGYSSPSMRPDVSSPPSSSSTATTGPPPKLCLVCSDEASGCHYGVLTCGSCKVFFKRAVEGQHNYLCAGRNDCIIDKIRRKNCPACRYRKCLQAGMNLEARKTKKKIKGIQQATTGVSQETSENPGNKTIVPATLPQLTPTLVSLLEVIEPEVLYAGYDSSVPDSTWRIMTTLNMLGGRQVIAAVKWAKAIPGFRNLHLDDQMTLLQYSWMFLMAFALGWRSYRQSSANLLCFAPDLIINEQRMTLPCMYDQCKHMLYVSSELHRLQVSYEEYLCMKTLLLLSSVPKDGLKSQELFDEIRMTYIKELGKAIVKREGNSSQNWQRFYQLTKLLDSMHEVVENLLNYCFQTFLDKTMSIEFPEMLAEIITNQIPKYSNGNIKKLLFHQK
Nature of the experiment: U2OS-GR/3xGRE luciferase reporter cell line (full-length receptor). Particulars: for Log EC50: agonist mode, 20 h, log10 of molar EC50, mean ± SEM; for Log EC50 / Log IC50: GR/3xGRE; for Log IC50: antagonist mode, in the presence of 5 nM dexamethasone, log10 of molar IC50, mean ± SEM.

The target in experiment [3] is T3, human AR (full-length) (Homo sapiens, UniProt P10275).
T3 construct: expression vectors encoding full-length steroid receptors: pcDNA3-hAR and pcDNA3-hGR; host or cells: U2OS
T3 sequence (P10275 1-920): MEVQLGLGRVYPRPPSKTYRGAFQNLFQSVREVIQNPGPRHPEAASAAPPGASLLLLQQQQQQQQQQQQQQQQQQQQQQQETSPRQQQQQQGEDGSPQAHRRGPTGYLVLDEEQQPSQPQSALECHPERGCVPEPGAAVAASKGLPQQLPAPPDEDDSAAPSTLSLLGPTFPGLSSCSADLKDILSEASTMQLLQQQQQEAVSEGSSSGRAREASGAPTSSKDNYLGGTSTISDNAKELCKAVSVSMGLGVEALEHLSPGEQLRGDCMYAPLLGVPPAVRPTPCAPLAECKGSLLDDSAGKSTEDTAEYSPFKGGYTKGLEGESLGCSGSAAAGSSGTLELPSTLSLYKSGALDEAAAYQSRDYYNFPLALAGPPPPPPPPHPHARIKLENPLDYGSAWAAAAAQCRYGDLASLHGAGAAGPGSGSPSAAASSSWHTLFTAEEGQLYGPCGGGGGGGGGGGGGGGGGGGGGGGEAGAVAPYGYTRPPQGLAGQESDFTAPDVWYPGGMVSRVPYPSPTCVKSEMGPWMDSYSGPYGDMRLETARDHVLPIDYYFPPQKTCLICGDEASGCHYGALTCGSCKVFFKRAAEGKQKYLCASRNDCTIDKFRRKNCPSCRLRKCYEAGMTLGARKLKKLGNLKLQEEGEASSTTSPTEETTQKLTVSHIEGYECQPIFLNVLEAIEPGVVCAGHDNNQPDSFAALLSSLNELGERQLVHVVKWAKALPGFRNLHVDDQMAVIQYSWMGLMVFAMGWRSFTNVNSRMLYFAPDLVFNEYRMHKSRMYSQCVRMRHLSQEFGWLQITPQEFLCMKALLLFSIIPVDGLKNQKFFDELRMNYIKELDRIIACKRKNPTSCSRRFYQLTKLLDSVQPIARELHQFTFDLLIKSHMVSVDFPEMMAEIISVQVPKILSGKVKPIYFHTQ
Briefly: U2OS-AR/MMTV luciferase reporter cell line (full-length receptor). Particulars: for Log EC50: agonist mode, 20 h, log10 of molar EC50, mean ± SEM; for Log EC50 / Log IC50: AR/MMTV; for Log IC50: antagonist mode, in the presence of 0.05 nM dihydrotestosterone, log10 of molar IC50, mean ± SEM.

Experiment [4] concerns the target T4, ERα^wt-LBD fused to Gal4-DBD (Homo sapiens, UniProt P03372).
T4 construct: ERα-LBD (amino acids 303-595) based on GenBank NM_000125; expressed in transfected cells; host or cells: U2OS
T4 sequence (P03372 303-595): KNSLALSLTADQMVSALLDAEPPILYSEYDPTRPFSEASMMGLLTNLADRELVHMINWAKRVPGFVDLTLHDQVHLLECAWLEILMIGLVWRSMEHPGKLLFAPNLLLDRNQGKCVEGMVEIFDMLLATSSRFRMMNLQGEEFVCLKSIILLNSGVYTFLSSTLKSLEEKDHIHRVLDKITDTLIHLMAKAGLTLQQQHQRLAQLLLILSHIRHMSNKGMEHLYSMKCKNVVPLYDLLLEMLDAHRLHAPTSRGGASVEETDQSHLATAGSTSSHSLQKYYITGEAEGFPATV
Briefly: U2OS-ERα^wt-LBD/9xGal4UAS luciferase reporter cell line.

On to `CC[C@@H]1Cc2cc(O)ccc2C2=C1c1ccc(O)cc1C[C@H]2CC` (relative stereo) [R.R-THC, (R,R)-cis-diethyltetrahydro-2,8-chrysenediol], for which the “Log EC50” value in experiment [1], in experiment [2] and in experiment [3] was above -5.00 M each time. Besides, the “Log IC50” value in experiment [1] was above -5.00 M; in experiment [2], above -5.00 M; in experiment [3] it was -5.22 ± 1.26 M.
With `C[C@]12CCC(=O)C=C1CC[C@@H]1[C@@H]2[C@@H](O)C[C@]2(C=O)[C@@H](C(=O)CO)CC[C@@H]12` [Aldosterone, aldosterone], the EC50 in experiment [1] (read-out: Log EC50 (converted)) was 1.15 µM; in experiment [2] (read-out: Log EC50 (converted)), 0.0302 µM; in experiment [4], above 10 µM; in experiment [3], above 10 µM.
`C[C@H]1C[C@H]2[C@@H]3CCC4=CC(=O)C=C[C@]4(C)[C@@]3(Cl)[C@@H](O)C[C@]2(C)[C@@]1(O)C(=O)CO` [Beclomethasone, beclomethasone]: in experiment [4] (agonist mode, ERα^wt-LBD/9xGal4UAS, 20 h, log10 of molar EC50, mean ± SEM), the “Log EC50” value is above -5.00 M. Also, in experiment [4] (antagonist mode, ERα^wt-LBD/9xGal4UAS, in the presence of 1 nM E2, log10 of molar IC50, mean ± SEM), the “Log IC50” value is given as above -5.00 M.
Turning to `C[C@]12C[C@H](O)[C@H]3[C@@H](CCC4=CC(=O)CC[C@@]43C)[C@@H]1CC[C@@H]2C(=O)CO` [Corticosterone, corticosterone], the EC50 was 0.269 µM in experiment [1] (read-out: Log EC50 (converted)), 0.00589 µM in experiment [2] (read-out: Log EC50 (converted)) and above 10 µM in experiment [4].
Regarding `C#C[C@]1(O)CC[C@H]2[C@@H]3CCC4=Cc5oncc5C[C@]4(C)[C@H]3CC[C@@]21C` [Danazol, danazol], the EC50 in experiment [1] (read-out: Log EC50 (converted)) is above 10 µM; in experiment [2] (read-out: Log EC50 (converted)), above 10 µM; in experiment [4] it was 0.245 µM.
`O=c1c(-c2ccc(O)cc2)coc2cc(O)cc(O)c12` [Genistein, genistein]: the EC50 in experiment [1], in experiment [2] and in experiment [3] was above 10 µM each time.
With `C[C@]12CC[C@@H]3c4ccc(O)cc4C[C@@H](CCCCCCCCC[S+]([O-])CCCC(F)(F)C(F)(F)F)[C@H]3[C@@H]1CC[C@@H]2O` (stereo partly drawn) [ICI 182.780], the “Log EC50” value in experiment [1], in experiment [2] and in experiment [3] was above -5.00 M in each case. Also, the “Log IC50” value in experiment [1], in experiment [2] and in experiment [3] was above -5.00 M each time.
On to `CCCc1c(-c2ccc(O)cc2)nn(-c2ccc(O)cc2)c1-c1ccc(O)cc1` [PPT, propyl pyrazole triol], for which the EC50 in experiment [1] (read-out: Log EC50 (converted)) was above 10 µM; in experiment [2] (read-out: Log EC50 (converted)), above 10 µM; in experiment [4], 0.0024 µM; in experiment [3], above 10 µM.
As to `CCC(=O)[C@@]1(C)CC[C@H]2[C@@H]3CCC4=CC(=O)CCC4=C3CC[C@@]21C` [Promegestone (R5020), promegestone], the EC50 was above 10 µM in experiment [1] (read-out: Log EC50 (converted)), above 3.16 µM in experiment [2] (read-out: Log EC50 (converted)), above 10 µM in experiment [4] and above 10 µM in experiment [3]. The same molecule gave an IC50 in experiment [3] of 0.0126 µM.
For the molecule `C[C@]12C=CC(=O)C=C1CC[C@H]1[C@@H]3C[C@@H](O)[C@](O)(C(=O)CO)[C@@]3(C)C[C@H](O)[C@@]12F` [Triamcinolone, triamcinolone], the results for the EC50 in experiment [1] (read-out: Log EC50 (converted)), in experiment [2] (read-out: Log EC50 (converted)) and in experiment [4] were 0.0102 µM, 0.00468 µM and above 10 µM, respectively.
